Reference: patent US9512396B2, “In vitro microphysiological system for high throughput 3D tissue organization and biological function” (The Trustees of the University of Pennsylvania, priority 2011, dated 2016)
Read-outs that look alike come from different tables or passages of the source.

Tested on: cardiac microtissues (CMTs)
Type: cell-based
Conditions: measured after 1 h
Method: In a first example, cardiomyocytes were isolated from 0-1 day neonatal Sprague Dawley rat pups by a Trypsin digestion protocol as previously described. The resulting cell population was immediately subjected to CMT generation. CMTs were cultured in high glucose DMEM (Mediatech, Inc.) containing 10% horse serum (Invitrogen), 2% chick embryo extract (Charles River Laboratories International, Inc.), 4 mM L-glutamine, 1 mM sodium pyruvate, 100 units/mL penicillin, and […] streptomycin (all from Invitrogen). Cell culture medium was changed every day. Stock solution of Isoproterenol (Sigma-Aldrich) of 10 mM was made in MilliQ water and stock solution of Digoxin (GlaxoSmithKline) of 10 mM was made in DMSO. Calcium staining was obtained by incubating CMTs for 1 h with the acetoxymethyl ester of fluo-3 (fluo-3/(AM), Invitrogen) as a fluorescent dye at 2 μM in PBS with 0.02% of Pluronic F127 (BASF).
Before cell seeding, the PDMS templates were sterilized in 70% ethanol followed by UV irradiation for 15 min and treated with 0.2% Pluronic F127 for 60 min to reduce cell adhesion. A reconstitution mixture, consisting of 1 mg/mL or 2.5 mg/mL liquid neutralized collagen I from rat tail (BO Biosciences) and 0.5 mg/mL fibrinogen from bovine plasma (Sigma-Aldrich), was then added to the surface of the substrates on ice and templates were degassed under vacuum to remove bubbles in the liquid. A cooled suspension of half a million cells within reconstitution mixture was then added to the substrate and the entire assembly was centrifuged to drive the cells into the micropatterned wells, resulting in around 500 cells per well. Excess collagen/fibrinogen and cells were removed by de-wetting the surface of the substrate before incubating at 37° C. to induce collagen polymerization. The appropriate media was then added to each substrate. By using a live/dead cell viability assay (Invitrogen), cell viability over time was estimated.
For quantifying microtissue forces, brightfield and fluorescence images were taken at 20 Hz within each template, using a Photometrics Evolve EMCCOcamera (Photometrics), and an A-Plan 10× objective on a Nikon Eclipse Ti (Nikon Instruments Inc.) equipped with a live cell incubator. Only tissues that were uniformly anchored to the tips of the cantilevers were included in the analysis. The displacement of fluorescent micro-beads at the top of the cantilevers was then tracked with using the SpotTracker plug-in in ImageJ (National Institutes of Health).
In one example, it was also examined whether CMTs responded appropriately to two cardiac compounds, isoproterenol and digoxin. To study the dose-response of the CMTs to these compounds, their concentrations were varied from 1 nM to 10 μM and the dynamic stress and the spontaneous frequency of CMTs were measured after 1 h (FIG. 13). Isoproterenol can be used as a β-adrenergic agonist with a positive chronotropic effect whereas digoxin is a cardiac glycoside that inhibits Na+/K+-ATPase (sodium pump), activates sarcoplasmic reticulum Ca2+-release channels and induces positive inotropic effects.

Compound	maximal stress increase (1 μM)	chronotropic effect (spontaneous frequency) (10 μM)	inotropic effect (dynamic stress) (10 μM)	spontaneous frequency (10 μM)	inotropic response (dynamic stress) (between 1 nM and 1 μM)	effect on dynamic stress and spontaneous frequency of CMTs (1 nM)	change of spontaneous frequency (1 μM)	change of spontaneous frequency (10 μM)	inotropic effect (contractility, dynamic stress) (1 and 10 nM (so in the source))	chronotropic action (spontaneous frequency) (1 and 10 μM)	inotropic action (contractility, dynamic stress) (10 and 100 nM)
C[C@H]1O[C@@H](O[C@H]2[C@@H](O)C[C@H](O[C@H]3[C@@H](O)C[C@H](O[C@H]4CC[C@@]5(C)[C@H](CC[C@@H]6[C@@H]5C[C@@H](O)[C@]5(C)[C@@H](C7=CC(=O)OC7)CC[C@]65O)C4)O[C@@H]3C)O[C@@H]2C)C[C@H](O)[C@@H]1O [Digoxin]	22±4%	strong negative chronotropic effect	almost no inotropic effect	under 0.04±0.01 Hz	positive inotropic response						
CC(C)NCC(O)c1ccc(O)c(O)c1 (centres unmarked) [Isoproterenol]						no observable effect	doubling	tripling	slight negative inotropic effect	positive chronotropic action	slight positive inotropic action
